Several values for one entry are separate records, joined by “and”; a condition that tells them apart may be missing. Equal entries are not always repeated.
Key:
human PBMCs = experiment: T-cell epitope mapping, PBMC proliferation (tritiated thymidine) with 15 mer hirudin peptides; type: cell-based; conditions: for donor response (SI>2): initial analysis, 25 donor samples, peptides at 1 μM and 10 μM, 7 days
PBMC from healthy donors = experiment: time-course T-cell assay, PBMC proliferation with WT and variant peptides; type: cell-based, human; conditions: cohorts of 20 healthy donors, SI>2 at any time point, days 6, 7, 8 and 9
Description: “Time course assay” refers to a biological assay such as a proliferation assay in which determinations of activity are made sequentially over a period of time. In the present context, a “time course T-cell assay”, refers to the determination of T-cell proliferation in response to a test immunogen (peptide) at multiple times following exposure to the test immunogen. The terms “time course T-cell assay” and “time course immunogenicity assay” may be used interchangeably herein.
Bulk cultures of 2-4×10^6 PBMC/well were established from 20 healthy donor samples in 24 well plates. Cells were incubated for 6 to 9 days with WT and variant peptides spanning the immunogenic regions (see Table 4). T cell proliferation was assessed by tritiated thymidine incorporation on days 6, 7, 8 and 9. Proliferation was assessed at each time point, by gently resuspending the bulk cultures and removing samples of PBMC, that were then incubated in triplicate wells of U-bottomed 96 well plate with 1 μCi/well tritiated thymidine for 18 hours as described above.
The time course assay was used to test variant peptides containing substitutions over WT. Substitutions were made at key locations where there was expectation that the substitution would prevent binding to MHC class II and therefore, subsequent T cell proliferation in the assay. FIG. 2 and FIG. 3 respectively show exemplary donor responses over the time course and overall response frequencies.

serine protease thrombin = serine protease thrombin (Homo sapiens, UniProt P00734); conditions: native hirudin; cited from earlier work
[1] = cited from earlier work
thrombin = target: T1, thrombin (Homo sapiens, UniProt P00734); experiment: chromogenic thrombin inhibition assay; type: biochemical; conditions: chromogenic substrate H-D-Phe-Pep-Arg-pNA, 37° C., relative to WT hirudin
T1 construct: purchased Diagnostica Stago (via Axis Shield Diagnostics, Dundee, UK) Stachrom HCII assay kit (catalogue number not given)
Description: A “thrombin inhibition assay” according to the present context means an in vitro assay able to provide a reading of the functional capability of the test protein. In the present instance this means the ability of a given hirudin mutein to evoke a specific measurable chromogenic response. Particularly suitable assays are exemplified herein using thrombin and the chromogenic thrombin substrate H-D-Phe-Pep-Arg-pNA. Other assay formats can be contemplated to also provide quantitative estimations of specific activity of the test molecules and permit ED50 determinations. […]
The functional activity of the modified hirudin proteins was assessed using a chromogenic thrombin inhibition assay. […] The chromogenic substrate H-D-Phe-Pep-Arg-pNA is then added and any residual free thrombin present will cleave the substrate to form H-D-Phe-Pep-Arg-OH and pNA that can then be detected spectrophotometrically at 405 nm […]
The plate was warmed to 37° C. for 5 minutes followed by addition of 40 μl thrombin and incubated for 120 seconds at 37° C. with shaking. […] 40 μl acetic acid was added to quench reaction and the plate was read spectrophotometrically at 405 nm. Absorbance at 405 nm vs hirudin concentration was plotted using Sigma plot (Sigma Poole, UK) and IC50 values calculated by fitting a sigmoidal equation. […]

In the case of “10: 15 mer hirudin peptide GNKCILGSDGEKNQC, SEQ ID NO: 96 (hirudo medicinalis) [Peptide 10]”, the “donor response (SI>2)” value (human PBMCs) is reported as 8%.

With “15: 15 mer hirudin peptide VTGEGTPKPESHNDG, SEQ ID NO: 101 (hirudo medicinalis) [Peptide 15]” the final response rate (human PBMCs; across a total of 55 donor samples) was 4% and the “donor response (SI>2)” value (human PBMCs) was 8%.

In the case of “CAAGSDGEKNQCVTG (modified hirudin sequence)”, the “% donor response in time course” value (PBMC from healthy donors) is reported as 5%.

With “CEKGSDGEKNQCVTG (modified hirudin sequence)” the “% donor response in time course” value (PBMC from healthy donors) was 10%.

In the case of “CILGSDGEKNQCVTG (hirudo medicinalis) [reference compound]”, the “% donor response in time course” value (PBMC from healthy donors) is reported as 25%.

For “CRHGSDGEKNQCVTG (modified hirudin sequence)”, the “% donor response in time course” value (PBMC from healthy donors) was 5%.

For Hirudin, the Ki (serine protease thrombin) is listed as 10^−11 to 10^−14 M.

For “[Leu^1, Thr^2]-63-desulphohirudin [lepirudin]”, the fatal outcomes ([1]; among the severe anaphylaxis cases, previous treatment course 1 to 12 weeks earlier) is given as 4 and the “patients judged to have had severe anaphylaxis” value ([1]; between 1994 and 2002, within minutes of intravenous administration) is given as 9 patients.

B1: M 25: hirudin mutein I29R L30R, SEQ ID NO: 28 (protein)
chain: VVYTDCTESGQNLCLCEGSVVCGQGNKCRRGSDGEKNQCVTGEGTPKPESHNDGDFEEIPEEYLQ
modifications: ends and bridges not checked
For B1, the “Relative Activity (Ratio of variant IC50/WT IC50)” value (thrombin) was 0.70.

B2: M 19: hirudin mutein I29E L30K, SEQ ID NO: 22 (protein)
chain: VVYTDCTESGQNLCLCEGSVVCGQGNKCEKGSDGEKNQCVTGEGTPKPESHNDGDFEEIPEEYLQ
modifications: ends and bridges not checked
With B2 the “Relative Activity (Ratio of variant IC50/WT IC50)” value (thrombin) was 1.0 and 0.55.

Reference: patent US7425533B2, “Modified hirudin proteins and T-cell epitopes in hirudin” (Merck Patent GmbH, priority 2003, dated 2008)
